In brackets after ≈: the same amount, converted by molar mass.

The source of these data is patent US6225260A, “Quaternary ammonium salts of a sulfonylurea” (Lonza Inc., priority 1999, dated 2001).

For one data set, the system named is Aspergillus niger. The settings on record: 6 days, Czapek solution agar. An excerpt: A. niger ATCC #16404 was contacted with each sulfonylurea salt for 6 days in a Czapek solution agar.
Data set [1] relates to Digitaria sanguinalis (Large Crabgrass). The data set can be described thus: Herbicidal efficacy against large crabgrass (green fresh weight, percent control). The class given is in vivo. As for the experimental part: (§1) Aqueous solutions of the benzethonium salts of each sulfonylurea were prepared with and without 0.25% by weight of the nonionic surfactant polyoxyethylene (20) monolaurate (Tween 20®, trademark of ICI), based upon 100% total weight of aqueous solution. The aqueous solutions were sprayed onto giant foxtail (Setaria faberi) and large crabgrass (Digitaria sanguinalis) with a spray volume of 187 L/ha (liters/hectare). The active amount of each salt applied in grams/hectare (g/ha) is shown in Table 2 with respect to giant foxtail and Table 3 with respect to large crabgrass. The plants were evaluated two weeks after treatment with the aqueous solution by obtaining their green fresh weights and comparing these weights to an untreated control treatment to compute percent control values. Six replications were made of each treatment. All data were analyzed using a Fisher's Least Significant Difference (L.S.D.) Test at the 0.05 level.
(§2) Aqueous solutions were prepared with 75% concentrated, water-dispersible granules (75 DF) of nicosulfuron and rimsulfuron available as Accent® herbicide and Titus® herbicide (trademarks of DuPont) with or without 0.25% by weight of Tween 20®. These aqueous solutions were tested against giant foxtail (Setaria faberi) and large crabgrass (Digitaria sanguinalis) as described in Example 4.

The subject of data set [2] is Setaria faberi (Giant Foxtail). The data set can be described thus: Herbicidal efficacy against giant foxtail (green fresh weight, percent control). The format is in vivo. The procedure: as §1, §2
A short description of data set [3]: Aging / storage stability: relative decomposition of the sulfonylurea by HPLC. The format is physicochemical. As to conditions: 10080 min.
Protocol: Into 7.8 g of epoxidized soybean oil (ESBO) was added with stirring: 1.18 g methyl 3-[[[[(4-methoxy-6-methyl-1,3,5-triazin-2-yl)amino]carbonyl]amino]sulfonyl]-2-thiophenecarboxylate tech (98.1%), 1.31 g of anhydrous diisobutylphenoxy ethoxyethyl dimethylbenzyl ammonium chloride in H2 O (Hyamine 1622™), 0.11 g Ca(OH)2, and 0.03 g calcium acetate.
In a vial was vortexed the following: 0.214 g methyl 2-[[[[[(4,6-dimethoxy-2-pyrimidinyl)amino]carbonyl]amino]sulfonyl]methyl]benzoate (98.3%),0.192 g of a 25% aqueous solution of tetramethyl ammonium hydroxide, and 4.32 g of water to produce the sulfonylurea quaternary salt.
A short description of data set [4]: Solubility in epoxidized soybean oil, methyl caprylate/caprate, and cottonseed oil.
A short description of data set [5]: Aging in deionized water: relative degradation of the sulfonylurea by HPLC. The class given is physicochemical. The settings on record: saturated in deionized water (500 ppm), 25° C. for 30 days. As for the experimental part: Deionized water (5 g) was saturated with 2-[[[[(4,6-dimethoxy-2-pyrimidinyl)amino]carbonyl]amino]sulfonyl]-N,N-dimethyl-3-pyridinecarboxamide tech (500 ppm) and aged at 25° C. for 30 days.

The nature of data set [6]: Hydrolytic stability in aqueous solution by HPLC (storage at room temperature for 36 days). The class given is physicochemical. The settings on record: 100 ppm in deionized water, after 36 days, read-out: percentage of material present after storage. As for the experimental part:
Aqueous solutions containing 100 ppm of nicosulfuron or its benzethonium salt were prepared with deionized water and stored at room temperature for 36 days. The solutions were analyzed by HPLC with an Inersil ODS2 column and an ultraviolet detector at a wavelength of 254 nm. The mobile phase through the column consisted of acetonitrile and water at a 1:1 volume ratio. The flow rate through the column was 1 ml/min.

The nature of a further data set: physchem. The settings on record: water, pH 7, water.

Regarding `CC(C)(C)CC(C)(C)c1ccc(OCCOCC[N+](C)(C)Cc2ccccc2)cc1.COC(=O)c1ccccc1S(=O)(=O)[N-]C(=O)Nc1nc(C)nc(OC)n1` [Benzethonium salt of metsulfuron-methyl], the “Minimum Effective Concentration” value in the data set on Aspergillus niger is 300-1000 ppm.

Turning to `CC(C)(C)CC(C)(C)c1ccc(OCCOCC[N+](C)(C)Cc2ccccc2)cc1.CCS(=O)(=O)c1cccnc1S(=O)(=O)[N-]C(=O)Nc1nc(OC)cc(OC)n1` [Benzethonium salt of rimsulfuron], in the data set on Aspergillus niger, the “Minimum Effective Concentration” value is 100-300 ppm. Further, the “% Control” value is 94% in data set [1] (10 g/ha, 0.25% Tween 20, two weeks after treatment); 58% in data set [1] (10 g/ha, no nonionic surfactant, two weeks after treatment); 95% in data set [2] (3 g/ha, 0.25% Tween 20, two weeks after treatment); 25% in data set [2] (3 g/ha, no nonionic surfactant, two weeks after treatment).

Turning to `CCCCCCCCCCCC[N+](CCCCCCCCCCCC)(CCCCCCCCCCCC)CCCCCCCCCCCC.COc1cc(OC)nc(NC(=O)[N-]S(=O)(=O)c2c(-c3nnn(C)n3)cnn2C)n1` [B], in data set [3] (50% solutions in epoxidized soybean oil, methyl caprylate/caprate, and cottonseed oil, 1 week at 54° C.), the relative degradation is listed as 20-45%. Moreover, the “solubility in organic solvents” value in data set [4] is “more than 50%”.

The solubility is the dissolved amount per volume that the medium holds. A high value points to much dissolved substance. Regarding `COc1cc(OC)nc(NC(=O)NS(=O)(=O)c2ncccc2C(=O)N(C)C)n1` [nicosulfuron, 2-[[[[(4,6-dimethoxy-2-pyrimidinyl)amino]carbonyl]amino]suflonyl]-N,N-dimethyl-3-pyridinecarboxamide], in data set [5], the degraded at 720 h worked out at 90%. In data set [6], the remaining at 864 h worked out at 7%. This compound also came in with a solubility in “physchem” of 12 mg/mL (≈ 29.2 mM).

For the compound `CC(C)(C)CC(C)(C)c1ccc(OCCOCC[N+](C)(C)Cc2ccccc2)cc1.COc1cc(OC)nc(NC(=O)[N-]S(=O)(=O)c2ncccc2C(=O)N(C)C)n1` [Benzethonium salt of nicosulfuron], in the data set with Aspergillus niger, the “Minimum Effective Concentration” value is 100-300 ppm. Also, the “% Control” value in data set [1] (20 g/ha, 0.25% Tween 20, two weeks after treatment) amounted to 94%; in data set [1] (20 g/ha, no nonionic surfactant, two weeks after treatment), 34%; in data set [2] (6 g/ha, 0.25% Tween 20, two weeks after treatment), 97%; in data set [2] (6 g/ha, no nonionic surfactant, two weeks after treatment), 39%.

As for `COC(=O)c1ccccc1CS(=O)(=O)[N-]C(=O)Nc1nc(OC)cc(OC)n1.C[N+](C)(C)C` [C], in data set [3] (aqueous solution, one week at 54° C.), the “degradation of the sulfonylurea” value is listed as 52%.
